Legend:
Assay in all cases: relative viability (nuclei count vs DMSO), 5 days (fraction); higher = more cells survive
201T = tested on: 201T
How it was run: (§1)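 Relative viability was taken as the ratio of nuclei in treated wells to nuclei in vehicle wells. Lung cancer cell lines in 1536-well plates received compounds by pin tool one day after seeding, either one drug alone or a fixed anchor-drug dose plus five library-drug doses (not always all listed) in √10 steps. Nuclei were counted on 4× images after 5 days of treatment, and values are medians of duplicate plates.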

COR-L23 = tested on: COR-L23
How it was run: as §1

H3255 = tested on: H3255
How it was run: as §1

HARA = tested on: HARA
How it was run: as §1

HCC-366 = tested on: HCC-366
How it was run: as §1

HCC-78 = tested on: HCC-78
How it was run: as §1

LU99A = tested on: LU99A
How it was run: as §1

NCI-H1650 = tested on: NCI-H1650
How it was run: as §1

NCI-H1651 = tested on: NCI-H1651
How it was run: as §1

NCI-H1755 = tested on: NCI-H1755
How it was run: as §1

NCI-H1793 = tested on: NCI-H1793
How it was run: as §1

NCI-H2085 = tested on: NCI-H2085
How it was run: as §1

NCI-H2087 = tested on: NCI-H2087
How it was run: as §1

NCI-H23 = tested on: NCI-H23
How it was run: as §1

NCI-H3122 = tested on: NCI-H3122
How it was run: as §1

NCI-H322M = tested on: NCI-H322M
How it was run: as §1

NCI-H358 = tested on: NCI-H358
How it was run: as §1

NCI-H460 = tested on: NCI-H460
How it was run: as §1

NCI-H522 = tested on: NCI-H522
How it was run: as §1

NCI-H596 = tested on: NCI-H596
How it was run: as §1

NCI-H650 = tested on: NCI-H650
How it was run: as §1

PC-3 [JPC-3] = tested on: PC-3 [JPC-3]
How it was run: as §1

SK-LU-1 = tested on: SK-LU-1
How it was run: as §1

Structure (SMILES): Cc1cn(-c2cc(NC(=O)c3ccc(C)c(Nc4nccc(-c5cccnc5)n4)c3)cc(C(F)(F)F)c2)cn1 [Nilotinib] + O=C(CCCCCCC(=O)Nc1ccccc1)NO [Vorinostat] (partner 1 µM)
- relative viability (201T; first compound 0.001 µM): 0.931
- relative viability (201T; first compound 0.003162 µM): 1.19
- relative viability (201T; first compound 0.01 µM): 1.22
- relative viability (201T; first compound 0.1 µM): 0.28
- relative viability (COR-L23; first compound 0.001 µM): 0.317
- relative viability (COR-L23; first compound 0.003162 µM): 0.347
- relative viability (COR-L23; first compound 0.01 µM): 0.406
- relative viability (COR-L23; first compound 0.03162 µM): 0.373
- relative viability (COR-L23; first compound 0.1 µM): 0.392
- relative viability (H3255; first compound 0.001 µM): 0.743
- relative viability (H3255; first compound 0.003162 µM): 0.706
- relative viability (H3255; first compound 0.03162 µM): 0.764
- relative viability (H3255; first compound 0.1 µM): 0.429
- relative viability (HARA; first compound 0.001 µM): 0.544
- relative viability (HARA; first compound 0.003162 µM): 0.668
- relative viability (HARA; first compound 0.01 µM): 0.507
- relative viability (HARA; first compound 0.03162 µM): 0.401
- relative viability (HARA; first compound 0.1 µM): 0.423
- relative viability (HCC-366; first compound 0.001 µM): 0.33
- relative viability (HCC-366; first compound 0.003162 µM): 0.361
- relative viability (HCC-366; first compound 0.01 µM): 0.364
- relative viability (HCC-366; first compound 0.03162 µM): 0.27
- relative viability (HCC-366; first compound 0.1 µM): 0.212
- relative viability (HCC-78; first compound 0.001 µM): 0.483
- relative viability (HCC-78; first compound 0.003162 µM): 0.512
- relative viability (HCC-78; first compound 0.01 µM): 0.553
- relative viability (HCC-78; first compound 0.03162 µM): 0.4
- relative viability (HCC-78; first compound 0.1 µM): 0.565
- relative viability (LU99A; first compound 0.001 µM): 0.429
- relative viability (LU99A; first compound 0.003162 µM): 0.506
- relative viability (LU99A; first compound 0.01 µM): 0.468
- relative viability (LU99A; first compound 0.03162 µM): 0.411
- relative viability (LU99A; first compound 0.1 µM): 0.353
- relative viability (NCI-H1650; first compound 0.001 µM): 0.49
- relative viability (NCI-H1650; first compound 0.003162 µM): 0.733
- relative viability (NCI-H1650; first compound 0.01 µM): 0.746
- relative viability (NCI-H1650; first compound 0.03162 µM): 0.488
- relative viability (NCI-H1650; first compound 0.1 µM): 0.528
- relative viability (NCI-H1651; first compound 0.001 µM): 0.531
- relative viability (NCI-H1651; first compound 0.003162 µM): 0.612
- relative viability (NCI-H1651; first compound 0.01 µM): 0.602
- relative viability (NCI-H1651; first compound 0.03162 µM): 0.528
- relative viability (NCI-H1651; first compound 0.1 µM): 0.418
- relative viability (NCI-H1755; first compound 0.001 µM): 0.605
- relative viability (NCI-H1755; first compound 0.003162 µM): 0.755
- relative viability (NCI-H1755; first compound 0.01 µM): 0.695
- relative viability (NCI-H1755; first compound 0.03162 µM): 0.59
- relative viability (NCI-H1755; first compound 0.1 µM): 0.595
- relative viability (NCI-H1793; first compound 0.001 µM): 0.64
- relative viability (NCI-H1793; first compound 0.003162 µM): 0.841
- relative viability (NCI-H1793; first compound 0.01 µM): 0.688
- relative viability (NCI-H1793; first compound 0.03162 µM): 0.386
- relative viability (NCI-H1793; first compound 0.1 µM): 0.257
- relative viability (NCI-H2085; first compound 0.001 µM): 0.833
- relative viability (NCI-H2085; first compound 0.003162 µM): 0.776
- relative viability (NCI-H2085; first compound 0.01 µM): 0.784
- relative viability (NCI-H2085; first compound 0.03162 µM): 0.753
- relative viability (NCI-H2085; first compound 0.1 µM): 0.598
- relative viability (NCI-H2087; first compound 0.001 µM): 0.707
- relative viability (NCI-H2087; first compound 0.003162 µM): 0.709
- relative viability (NCI-H2087; first compound 0.01 µM): 1.23
- relative viability (NCI-H2087; first compound 0.03162 µM): 0.567
- relative viability (NCI-H2087; first compound 0.1 µM): 0.543
- relative viability (NCI-H23; first compound 0.001 µM): 0.48
- relative viability (NCI-H23; first compound 0.003162 µM): 0.438
- relative viability (NCI-H23; first compound 0.01 µM): 0.685
- relative viability (NCI-H23; first compound 0.03162 µM): 0.239
- relative viability (NCI-H23; first compound 0.1 µM): 0.546
- relative viability (NCI-H3122; first compound 0.001 µM): 0.85
- relative viability (NCI-H3122; first compound 0.003162 µM): 1.47
- relative viability (NCI-H3122; first compound 0.01 µM): 1.07
- relative viability (NCI-H3122; first compound 0.03162 µM): 0.89
- relative viability (NCI-H3122; first compound 0.1 µM): 0.851
- relative viability (NCI-H322M; first compound 0.001 µM): 0.896
- relative viability (NCI-H322M; first compound 0.003162 µM): 0.68
- relative viability (NCI-H322M; first compound 0.01 µM): 0.962
- relative viability (NCI-H322M; first compound 0.03162 µM): 0.848
- relative viability (NCI-H322M; first compound 0.1 µM): 0.913
- relative viability (NCI-H358; first compound 0.001 µM): 0.601
- relative viability (NCI-H358; first compound 0.003162 µM): 0.747
- relative viability (NCI-H358; first compound 0.01 µM): 0.834
- relative viability (NCI-H358; first compound 0.03162 µM): 0.411
- relative viability (NCI-H358; first compound 0.1 µM): 0.424
- relative viability (NCI-H460; first compound 0.001 µM): 0.428
- relative viability (NCI-H460; first compound 0.003162 µM): 0.996
- relative viability (NCI-H460; first compound 0.01 µM): 1.34
- relative viability (NCI-H460; first compound 0.03162 µM): 0.33
- relative viability (NCI-H460; first compound 0.1 µM): 0.535
- relative viability (NCI-H522; first compound 0.01 µM): 1.01
- relative viability (NCI-H522; first compound 0.03162 µM): 0.749
- relative viability (NCI-H522; first compound 0.1 µM): 0.786
- relative viability (NCI-H596; first compound 0.001 µM): 0.518
- relative viability (NCI-H596; first compound 0.003162 µM): 0.455
- relative viability (NCI-H596; first compound 0.01 µM): 0.651
- relative viability (NCI-H596; first compound 0.03162 µM): 0.532
- relative viability (NCI-H596; first compound 0.1 µM): 0.498
- relative viability (NCI-H650; first compound 0.001 µM): 0.392
- relative viability (NCI-H650; first compound 0.003162 µM): 0.437
- relative viability (NCI-H650; first compound 0.01 µM): 0.445
- relative viability (NCI-H650; first compound 0.03162 µM): 0.407
- relative viability (NCI-H650; first compound 0.1 µM): 0.377
- relative viability (PC-3 [JPC-3]; first compound 0.001 µM): 0.792
- relative viability (PC-3 [JPC-3]; first compound 0.01 µM): 0.668
- relative viability (PC-3 [JPC-3]; first compound 0.03162 µM): 0.691
- relative viability (PC-3 [JPC-3]; first compound 0.1 µM): 0.53
- relative viability (SK-LU-1; first compound 0.001 µM): 0.628
- relative viability (SK-LU-1; first compound 0.003162 µM): 0.756
- relative viability (SK-LU-1; first compound 0.01 µM): 0.865
- relative viability (SK-LU-1; first compound 0.03162 µM): 0.632
- relative viability (SK-LU-1; first compound 0.1 µM): 0.692

Source: the supplement of paper PMC10307832
